The values that follow come from patent US12508431B2, “Method and apparatus for electrical current therapy of biological tissue and insulin release therefrom” (ROCKY MOUNTAIN BIPHASIC, INC., priority 2019, dated 2025).

Assay [1] deals with INS-1 cells. Nature of the assay: Transmembrane potential assay by DiBAC4(3) staining. Type of assay: cell-based, rat. The conditions noted are these: 30 min in staining buffer with 5 μM DiBAC4(3), valinomycin 100 nM, gramicidin 100 nM, KCl 140 mM, FIG. 8A. Here is the method: The transmembrane potential (TMP) was estimated using DiBAC4(3) staining as previously described. For these studies, INS-1 cells were grown to 95% confluency in 6-well plates. The medium was aspirated, replaced with 3 mL fresh complete medium per well, and subjected to mock stimulation or ACBPS (10 Hz, (2.5 ms)/(2.5 ms) pulse duration, 25 V magnitude) for 30 min. Immediately following the stimulation period, the medium was aspirated from each well and replaced with 2 mL per well staining buffer (20 mM HEPES, 120 mM NaCl, 2 mM KCl, 2 mM CaCl2), 1 mM MgCl2, and 5 mM glucose [pH 7.4]) containing 5 μM DiBAC4(3) with DMSO (mock and ACBPS), valinomycin (100 nM), gramicidin (100 nM) or KCl (140 mM). The cells were allowed to incubate in staining buffer at 37° C. for 30 min. Thereafter, the fluorescence intensity of DiBAC4(3) stained INS-1 cells (Ex 490 nm/Em 516 nm) was measured using a BioTek Synergy H1 plate reader programmed to acquire 49 (7×7) individual measurements per well.

Assay [2] deals with INS-1 cells. The assay is classed as cell-based, rat. The conditions noted are these: FIG. 5A/5B; for ACBPS-induced insulin release: ACBPS 10 Hz, 25 V; for basal insulin release: mock stimulation. Here is the method:
A rat insulinoma cell line INS-1 was obtained and were grown in 6-well polystyrene culture plates as attached monolayers in RPMI1640 culture medium supplemented with 10% fetal bovine serum, 10 mM HEPES, 1 mM sodium pyruvate, 2 mM L-glutamine, 0.05 mM 2-mercaptoethanol, 100 IU/mL penicillin and 100 μg/mL streptomycin (i.e., complete medium). Cells were maintained and experiments were conducted in a humidified atmosphere of 5% CO2 in air at 37° C. Select studies were carried out in glucose-free RPMI1640 culture medium supplemented with reagents as described above. In these experiments, the regular medium was exchanged for glucose-free medium 16 hours prior to the electrical stimulation experiment.
ACBPS was applied to cells using a C-Pace EP cell culture stimulator in combination with a C-dish electrode array for a 6-well plate. Control cells were mock stimulated using an identical 6-well C-dish electrode array that was not connected to the stimulator. Unless otherwise stated, the biphasic stimulation parameters were anodal followed by cathodal at 10 Hz (frequency), 5 milliseconds (ms) (total pulse duration), and 25 V (pulse magnitude).
Insulin release from INS-1 cells into the culture medium was determined by ELISA (Rat Insulin ELISA Kit) per the manufacturer's instructions. For these studies, cells were grown to approximately 95% confluency in 6-well plates containing 3 mL complete medium/well. 16 hours before stimulation, the medium was replaced with 3 mL fresh complete medium. Immediately prior to stimulation, the medium was aspirated, the cells were washed twice with 2 mL phosphate buffered saline (PBS), and then 3 mL fresh complete medium was added to each well. Cells were subjected to ACBPS (10 Hz, (2.5 ms)/(2.5 ms) pulse duration (i.e. anodal duration/cathodal duration), 10-25 V magnitude) or mock stimulation for the indicated times. At the end of the stimulation periods, a 0.5 mL sample of medium was removed from each well and stored frozen at −70° C. for later analysis. In some studies, cells were grown for 16 hours in glucose-free medium prior to stimulation. To examine a role for electrolysis products in promoting insulin release, an additional series of experiments were conducted that involved the application of ACBPS (10 Hz, (2.5 ms)/(2.5 ms) pulse duration, 25 V magnitude) or no stimulation (mock) for 30 min to 6-well plates containing only complete medium (3 mL per well) (i.e., no cells). At the end of the stimulation period, the “pre-stimulated” medium was transferred to cells that had been washed twice with PBS (as above). The cells were allowed to incubate with the pre-stimulated medium for 30 min, after which a 0.5 mL sample of medium was removed from each well and stored frozen at −70° C. for latter analysis. The insulin concentration of the culture medium was measured by colorimetric ELISA using 2 μL of the culture medium as described by the manufacturer. Culture medium samples and insulin standards were allowed to bind for 16 hours at 4° C.

As for `[Cl-].[K+]` [KCl], the “DiBAC4(3) fluorescence” value in assay [1] is “increased”.

For the compound `CC[C@@H]1/C=C/C=C/C[C@H](C)[C@H](O)[C@](C)(O)C(=O)[C@H](C)[C@@H](O)[C@H](C)C(=O)[C@H](C)[C@@H](O)[C@H](C)/C=C/C(=O)O[C@H]2[C@@H](C)[C@@H](CC1)O[C@@]1(CC[C@@H](C)[C@@H](C[C@H](C)O)O1)[C@@H]2C` [oligomycin A], in assay [2], the ACBPS-induced insulin release result is on record as “inhibited” and the basal insulin release result was “inhibited”.

For `CC(C)[C@@H]1NC(=O)[C@H](C)OC(=O)[C@@H](C(C)C)NC(=O)[C@@H](C(C)C)OC(=O)[C@H](C(C)C)NC(=O)[C@H](C)OC(=O)[C@@H](C(C)C)NC(=O)[C@@H](C(C)C)OC(=O)[C@H](C(C)C)NC(=O)[C@H](C)OC(=O)[C@@H](C(C)C)NC(=O)[C@@H](C(C)C)OC1=O` [valinomycin], the “DiBAC4(3) fluorescence” value in assay [1] is listed as “decrease”.

For `COc1ccc(CCN(C)CCCC(C#N)(c2ccc(OC)c(OC)c2)C(C)C)cc1OC` (centres unmarked) [verapamil], the basal insulin release entry in assay [2] was “inhibited”.

Consider Antimycin A, for which, in assay [2], the ACBPS-induced insulin release result is “inhibited” and the basal insulin release result is recorded as “inhibited”.

Turning to gramicidin A, the “DiBAC4(3) fluorescence” value in assay [1] was “increased”.
